Read-outs that look alike come from different tables or passages of the source.
Legend:
[1] = test system: E. coli (MG1655); assay: MIC measurement using the self-loading microfluidic device; format: cell-based; conditions: for MIC, Device: E. coli, 18 h at 35° C., CAMBH pH 8.2 with 1% glucose and 0.05% phenol red, dilution series 0.5-1024 μg/mL
Procedure: (§1) Minor adjustments were made to procedures mimicking the CLSI guidelines to perform MIC measurements using microfluidic devices prepared as described above. Antibiotic stock solutions (10 mg/mL in sterile deionized water) of vancomycin hydrochloride, tetracycline hydrochloride, and kanamycin monosulfate were used to prepare a 1:10 dilution series. Appropriate amounts of these dilutions were added to sterile deionized water to create a two-fold dilution series that varied from 0.5-1024 μg/mL. Antibiotic solution (2.94 μL) was added to each chamber with the lowest antibiotic concentration located closest to the inlet port and the highest antibiotic concentration located in the chamber closest to the vacuum well. After antibiotic loading, the device was placed in a laminar flow hood to evaporate the liquid. After the liquid was evaporated, the device was assembled by placing the layer of PDMS forming the channel section over the chamber layer containing the dried antibiotic such that the channels connected the chambers. The assembled device was then placed under vacuum.
(§2) The standardized culture was then diluted 1:200 in CAMBH media, pH 8.2 supplemented with 1% glucose and 0.05% phenol red to provide a colorimetric change upon growth. The device was removed from the vacuum and 20 μL of cell suspension was pipetted onto the inlet port. […] Bacterial growth changed the pH of the liquid nutrient media containing the indicator phenol red, and produced a visible color change that was used to identify the cell growth in chambers.

[2] = test system: E. faecalis (1131); assay: as above; format: cell-based; conditions: 18 h at 35° C., CAMBH pH 8.2 with 1% glucose and 0.05% phenol red, dilution series 0.5-1024 μg/mL
Procedure: as §1, §2

[3] = test system: K. pneumoniae; assay: as above; format: cell-based; conditions: 18 h at 35° C., CAMBH pH 8.2 with 1% glucose and 0.05% phenol red, dilution series 0.5-1024 μg/mL
Procedure: as §1, §2

[4] = test system: P. mirabilis (HI4320); assay: as above; format: cell-based; conditions: 18 h at 35° C., CAMBH pH 8.2 with 1% glucose and 0.05% phenol red, dilution series 0.5-1024 μg/mL
Procedure: as §1, §2

[5] = test system: E. faecalis (1131); assay: Off-chip MIC, broth dilution method according to CLSI protocols; format: cell-based; design: unit not given beside the values; conditions: CAMHB, 20 h at 35° C. (vancomycin 24 h)
Procedure: (§3) Off-chip MIC assays using the broth dilution method according to CLSI protocols were performed as control experiments and to validate experimental data obtained with the microfluidic device.

[6] = test system: P. mirabilis (HI4320); assay: as above; format: cell-based; design: unit not given beside the values; conditions: CAMHB, 20 h at 35° C.
Procedure: as §3

[7] = test system: K. pneumoniae; assay: as above; format: cell-based; conditions: CAMHB, 20 h at 35° C.
Procedure: as §3

[8] = test system: E. coli (MG1655); assay: as above; format: cell-based; design: MIC, Broth: unit not given beside the values; conditions: for MIC, Broth: E. coli, broth dilution, CAMHB, 20 h at 35° C.
Procedure: as §3

[9] = test system: kanamycin-resistant strain of E. coli MG1655; assay: Susceptibility to multiple antibiotics on a single microfluidic device using breakpoint values; format: cell-based; conditions: 18 h; for effect on growth of the strain: vancomycin 2, 4, 8 μg/mL, tetracycline 0.5, 1, 2 μg/mL, kanamycin 1, 2, 4 μg/mL
Description: In this Example, a single microfluidic device was used to simultaneously test the susceptibility of the kanamycin-resistant strain of E. coli MG1655 described above to multiple antibiotics using breakpoint values.
In clinical microbiology, a strain is classified as susceptible, intermediate, or resistant based on the relationship of the MIC of an antibiotic to specified ‘breakpoint’ values. Breakpoint values are set by organizations, such as the CLSI, and take into consideration MIC values of wild type strains, pharmacokinetic/pharmacodynamic data, and clinical outcomes. Breakpoint values are available for specific clinically relevant pairings of bacterial species and antibiotics and enable clinical decisions without knowing the exact MIC value.
Specifically, vancomycin, tetracycline, and kanamycin were added to the reaction wells of a single device. The most common breakpoints for vancomycin (susceptible <2 μg/mL, resistant >2 μg/mL), tetracycline (susceptible <1 μg/mL, intermediate=2 μg/mL, resistant >2 μg/mL), and gentamicin (susceptible <2 μg/mL, intermediate=4 μg/mL, resistant >4 μg/mL) were used. As there are no published breakpoints available for kanamycin, the breakpoint values for the structurally related aminoglycoside, gentamicin, against aerobic bacteria was used. A microfluidic device with ten chambers was prepared as described in Example 1 above. The ten chambers were divided into three chambers for each antibiotic vancomycin (2, 4, 8 μg/mL), tetracycline (0.5, 1, 2 μg/mL), and kanamycin (1, 2, 4 μg/mL) and one chamber for a control containing no antibiotic.

[10] = test system: kanamycin-resistant E. coli strain (from MG1655); assay: microbe, parasite or virus in culture; conditions: Escherichia coli, MG1655, 18 h, read-out: MIC of the resistant strain
Procedure: Specifically, 100 μL of an overnight culture of E. coli MG1655 were plated on LB agar plates supplemented with 16 μg/mL kanamycin; the antibiotic concentration was ˜2× the MIC of kanamycin measured against E. coli MG1655. […] One of these colonies was characterized for its sensitivity to kanamycin in the microfluidic device. The kanamycin-resistant strain was compared to the wild type parent strain.
The devices were assembled and placed under vacuum for degassing. After the devices were removed from the vacuum, an aliquot (20 μL) of a suspension of cells of the resistant strain was introduced into the inlet port of one device and an aliquot (20 μL) of a suspension of cells of the wild type strain was introduced into the inlet port of the second device. Degas-driven flow filled and isolated the samples in the chambers. The devices were incubated for 18 h at 35° C. in a humidified incubator.
To eliminate external equipment needed for interpreting the test results, a pH sensor was incorporated to indicate cell growth. Specifically, the pH indicator phenol red (0.05% w/v) and glucose (1% w/v) were added to CAMHB media and adjusted the pH to 8.2. Phenol red was selected as it produces a distinct color change close to neutral pH and is not absorbed by PDMS. At the initial pH of the nutrient media, pH 8.2, phenol red appears bright red. […]

[11] = test system: kanamycin-resistant E. coli strain (from MG1655); assay: microbe, parasite or virus in culture; conditions: Escherichia coli, MG1655, read-out: MIC of the resistant strain, control broth dilution
Procedure: A 1:10 dilution series of the stock solutions in cation-adjusted Mueller-Hinton broth (CAMHB) was prepared and added to CAMBH (pH 7.3) to create a two-fold series dilution in which the total volume was 1 mL. Cell solutions of E. faecalis (1131), P. mirabilis (HI4320), K. pneumoniae, and E. coli (MG1655) were prepared in 13×100 mm tubes by adjusting the concentration of cells in overnight cultures to match the turbidity of a 0.5 McFarland standard (˜10^8 CFU/mL) using CAMHB. The solutions were diluted 100-fold in CAMHB and 1 mL of the suspension was added to 1 mL of antibiotic solution—prepared as described above—to yield a final cell concentration of ˜5×10^5 CFU/mL. The cultures were incubated for 20 h in a humidified incubator at 35° C. (no shaking) with the exception of experiments with vancomycin and E. faecalis, which were incubated for 24 h according to CLSI protocols. The MIC was determined as the lowest concentration of antibiotic at which no growth was visible after incubation.
Thus, the MIC of the kanamycin-resistant E. coli strain and the susceptible strain was determinable by visually identifying the chamber containing the lowest concentration of kanamycin in which the pH indicator remained red.

Structure (SMILES)	MIC, Device [1]	MIC ([1]; Escherichia coli, MG1655, Example 5, 18 h at 35° C., phenol red indicator, read-out: MIC of the wild type strain)	MIC, Device [2]	MIC, Device [3]	MIC, Device [4]	MIC, Broth [5]	MIC, Broth [6]	MIC, Broth [7]	MIC, Broth [8]	MIC ([8]; Escherichia coli, MG1655, Example 5, standard liquid broth dilution assay, read-out: MIC of the wild type strain, control broth dilution)	effect on growth of the strain [9]	MIC [10]	MIC [11]	phenotype of the strain by breakpoint values ([9]; tetracycline breakpoints)
NC[C@H]1O[C@H](O[C@H]2[C@H](O)[C@@H](O[C@H]3O[C@H](CO)[C@@H](O)[C@H](N)[C@H]3O)[C@H](N)C[C@@H]2N)[C@H](O)[C@@H](O)[C@@H]1O [kanamycin, kanamycin monosulfate]	4	4 µg/mL	128	2	8	64	4	2	8	8 µg/mL	did not have any effect	64 µg/mL	128 µg/mL	–
CN(C)[C@@H]1C(O)=C(C(N)=O)C(=O)[C@@]2(O)C(O)=C3C(=O)c4c(O)cccc4[C@@](C)(O)[C@H]3C[C@@H]12.Cl [tetracycline, tetracycline hydrochloride]	2	–	64	8	128	32	256	8	1	–	inhibited the growth	–	–	intermediate (intermediate=2 μg/mL)
